# Read-outs that look alike come from different tables or passages of the source.
# Key:
# [1] = system: phosphoinositol turnover in rat primary cardiomyocytes; conditions: oxygen and glucose deprivation (untreated app. 50%); conference abstract; cited from earlier work
# [2] = target: murine heart tissue preparations; test: Displacement of [125I]AAP10 from murine heart tissue preparations; type: binding, mice
# Experimental: Hearts are excised from mice (Balb/cJ, 20 g), rinsed twice in ice-cold (0°C) 0.32 M sucrose and homogenized on ice in 10 volumes of sucrose with an Ultra Turrax homogeniser (1000 rpm) for 2 minutes. The homogenate is centrifuged at 1000 gmea" for 10 minutes at 4° C and the supernatant collected and filtrated through 4 layers of gauze. The filtrate is then centrifuged at 50,000 gmean for 45 min at 4° C and the pellet resuspended in 10 volorg. wet weight ice-cold distilled water and incubated for 60 min at 0° C and re-centrifuged at 50,000 gmean at 45 min at 4° C. The resulting pellet is resuspended in 2 vol org. wet weight of PBS (Phosphate Buffered Saline) and stored at - 80° C until use.
# human osteoblastic cells = test: DDT-induced uncoupling, Lucifer Yellow dye transfer in human osteoblastic cells; type: cell-based; conditions: 10^-8 mol/l, 10 minutes, after DDT 13 µM for 60 minutes
# Experimental: Human osteoblast cells: Cells were isolated from human bone marrow obtained by puncture of the posterior iliac spine of healthy volunteers (aged 20-36): 10-15 ml marrow material was collected in 15 ml PBS + Ca, Mg (Life Technologies, Cat.No. 14040) with 100 U/ml Heparin (Sigma, Cat.No. H-3149). The mononuclear fraction of the marrow was isolated on a Lymphoprep gradient (Nycomed Pharma, Cat.No. 1001967), by centrifugation at 2200 rpm for 30 min. After harvesting, the mononuclear fraction was washed once with culture medium and centrifuged at 1800 rpm for 10 min. Subsequently cells were counted and plated in culture medium at 8x10^6 cells/100 mm dish. hOB medium (all reagents obtained from Life Technologies): MEM w/o Phenol Red w/ Glutamax (Cat.No. 041-93013) supplemented with 10% heat inactivated fetal calf serum (Cat.No. 10106) and 0.1% Penicillin/Streptomycin (Cat.No. 15140). Medium was changed the following day and the cells were cultured at 37°C in 5%CO2 with medium change every 7 days. After 3-4 weeks of culture the cells had reached 70% confluence. The medium was then supplemented with 100 nM Dexamethasone (Sigma, Cat.No. D-4902) for 7 days. Cells were then plated for video imaging experiments: a 25 mm #1 glass coverslip was placed in a 35 mm dish (or each well of a 6-well multidish), cells were plated at 2.5x10^5 cells/coverslip and cultured for 2-3 days before use. […]
# [3] = system: ventricular reentry arrhytmias; test: Ventricular reentry arrhythmias in dogs after coronary artery occlusion; type: in vivo; conditions: after the lowest i.v. dose (bolus: 0.1 µg/kg; infusion: 2 ng/kg/min), after CAO
# Experimental: Three dogs were studied in the anesthetized, open chest state to facilitate electrode placement for mapping. α-chloralose was given as a bolus (200 mg/kg) and then a constant Infusion at 8 mg/kg/hr (dissolved in polyethylene glycol, MW=200). The femoral vein and artery was cannulated for administration of fluid and drugs and for measurement of ascending aortic pressure, respectively.
# The sinus node was clamped and the atrial appendage was paced with a programmable stimulator with constant current outputs at two times diastolic threshold. Pacing rate was ≥200 b/min to control heart rates. […] Late ventricular diastolic threshold was measured during each intervention; the pacing current was four times threshold.
# Test sites were chosen along the shaft of 16 pole needles (J. Kassell, Fayetteville, NC); each pole completely surrounds the needle shaft to prevent directionality of needle orientation from recording of adjacent Purkinje strands. Six bipolar electrograms (1 mm spacing) were recorded sequentially down the shaft of the needle by amplifying up to 1000 times, filtering from 3-1300 Hz and recording via oscilloscope during atrial pacing. Four intramural electrograms are recorded on each multipolar needle. […] Inter-needle distance measured on epicardium varies over 6-10 mm in dogs weighing 12-16 kg. […]
# [4] = system: isolated perfused rabbit hearts; test: Isolated perfused rabbit heart (Langendorff), APD90 dispersion during hypokalemic ischemia; conditions: 10^-10 mol/l
# human osteoblast = human osteoblast cultures and osteoblastic rat osteosarcoma cell lines; conference abstract; cited from earlier work
# CHO cells = test: In situ binding of [125I]AAP10 on intact CHO cells; conditions: overnight at 4° C
# Experimental: CHO cells are seeded in 24-multi well dishes in a density of 7,900 cells/cm^2 (∼ 15,000 cells/well) and grown for 3 Days In Vitro (DIV) in 1 ml/well of F-12K Nutrient Mixture supplemented with 10% Foetal Calf Serum (FCS) and 1000 units penicillin/1000 µg streptomycin (pen/strep) in an atmosphere of 5% CO2 and 100% humidity at 37° C. The cell density has at that time increased to 295,000 cells/cm^2 (152 pgprot/cell ∼ 85 µgprot/well).
# On the day of analysis cells are removed from the incubator and each well is washed twice with, depending on the experiment, either 2 ml pre-warmed (37 °C) or ice-cold (0 °C) D-PBS to remove serum. It is important to keep the period to a minimum during which cells are left without physiological solutions to avoid that they dry out during washing procedures. The cold washed cells are used directly for binding assays while the warm washed cells are used for experiments with glucose and oxygen deprivation.
# The in situ binding is performed by a modified protocol based on the description by Koenig. […] Cells incubate overnight at 4° C to reach equilibrium. Each well, one at the time, is then rinsed rapidly with 2 x 1 ml D-PBS and left to dry.
# 0.25 ml of 0.5 % Triton-X-100 (v/v) is added to each well and cells left for at least 1 h to solubilize. The extract is transferred to counting vials, the wells rinsed with 0.25 ml water and the rinse extract added to the corresponding vials. The vials are counted in a γ-counter. Table 3. In situ binding, IC50 (nM).
substance,measurement,setting,value
Ac-D-Tyr-D-Pro-D-4Hyp-Gly-D-Ala-Gly-NH2 [Compound 2],"noradrenalin-induced PI turnover, % of the normal level",[1],~90%
same,IC50,"[2]; displacement of 0.8 nM [125I]AAP10, filtrate, read-out: Filtrate IC50",3.6 nM
same,IC50,"[2]; displacement of 0.8 nM [125I]AAP10, membranes, read-out: Membranes IC50",1.2 nM
same,"cell-to-cell dye transfer, median",human osteoblastic cells,8.3 cells
same,inducibility of epicardial reentry VT,[3],VT was no longer inducible
same,"increase in APD90 dispersion during hypokalemic, acute myocardial ischemia",[4],prevented
same,hypoxia-induced decrease of dye transfer after Lucifer Yellow injections,human osteoblast,completely reversed
same,IC50,CHO cells,0.5 nM
